inhibition, IC50 and Activity data for 5 compounds are collected here from ChEMBL document CHEMBL3045313, “Reduced Lantadenes A and B: semi-synthetic synthesis, selective cytotoxicity, apoptosis induction and inhibition of NO, TNF- production in HL-60 cells” (Med Chem Res, 2013).

Experiment [1] deals with HL-60. Kind of experiment: Inhibition of nitrite production in Homo sapiens (human) HL60 cells at 5 to 15 uM after 12 hr by Griess assay. The format is functional, cell-based.
The test system of experiment [2] is HCT-116. Kind of experiment: Cytotoxicity against Homo sapiens (human) HCT116 cells assessed as growth inhibition after 48 hr by MTT assay. The format is functional, cell-based. Conditions: HCT-116, 48 h.
In experiment [3] the test system is Vero. Kind of experiment: Cytotoxicity against Chlorocebus aethiops (African green monkey) Vero cells assessed as growth inhibition after 48 hr by MTT assay. In kind it is cell-based. Conditions: Chlorocebus sabaeus.
Experiment [4] relates to HL-60. Kind of experiment: Cytotoxicity against Homo sapiens (human) HL60 cells assessed as growth inhibition after 48 hr by MTT assay. The following applies: HL-60, 48 h. In kind it is functional, cell-based.
Experiment [5] concerns HSC-2. Kind of experiment: Cytotoxicity against Homo sapiens (human) HSC2 cells assessed as growth inhibition after 48 hr by MTT assay. The format is functional, cell-based. Conditions: HSC-2, 48 h.
For experiment [6], the system named is MCF7. Kind of experiment: Cytotoxicity against Homo sapiens (human) MCF7 cells assessed as growth inhibition after 48 hr by MTT assay. The format is functional, cell-based. The following applies: MCF7, 48 h.
Experiment [7] concerns HL-60. Briefly: Cell cycle arrest in Homo sapiens (human) HL60 cells assessed as accumulation at S phase at 15 uM after 6 hr by propidium iodide staining-based FACS flow cytometric analysis (reference value: 56.8 +/- 2.4%). The format is functional.
The subject of experiment [8] is HL-60. Briefly: Cell cycle arrest in Homo sapiens (human) HL60 cells assessed as accumulation at sub-G1 phase at 15 uM after 12 hr by propidium iodide staining-based FACS flow cytometric analysis (reference value: 0.1%). In kind it is functional.
Experiment [9] deals with HL-60. Kind of experiment: Cell cycle arrest in Homo sapiens (human) HL60 cells assessed as accumulation at sub-G1 phase at 15 uM after 3 hr by propidium iodide staining-based FACS flow cytometric analysis (reference value: 0.1%). The format is functional.
Experiment [10] relates to HL-60. Briefly: Cell cycle arrest in Homo sapiens (human) HL60 cells assessed as accumulation at G2/M phase at 15 uM after 3 hr by propidium iodide staining-based FACS flow cytometric analysis (reference value: 9 +/- 1.2%). The format is functional.
Experiment [11] relates to HL-60. Briefly: Cell cycle arrest in Homo sapiens (human) HL60 cells assessed as accumulation at sub-G1 phase at 15 uM after 6 hr by propidium iodide staining-based FACS flow cytometric analysis (reference value: 0.1%). In kind it is functional.
Experiment [12] relates to HL-60. Kind of experiment: Cell cycle arrest in Homo sapiens (human) HL60 cells assessed as accumulation at G0/G1 phase at 15 uM after 3 hr by propidium iodide staining-based FACS flow cytometric analysis (reference value: 36.2 +/- 2.4%). The format is functional.
The subject of experiment [13] is HL-60. Kind of experiment: Cell cycle arrest in Homo sapiens (human) HL60 cells assessed as accumulation at G0/G1 phase at 15 uM after 9 hr by propidium iodide staining-based FACS flow cytometric analysis (reference value: 36.2 +/- 2.4%). In kind it is functional.
Experiment [14] concerns HL-60. Kind of experiment: Upregulation of caspase-3 expression in Homo sapiens (human) HL60 cells at 15 uM after 4 hr by RT-PCR analysis. The format is functional, cell-based.
The test system of experiment [15] is HL-60. Briefly: Downregulation of iNOS expression in Homo sapiens (human) HL60 cells after 12 hr by scanning densitometric analysis. The format is functional, cell-based.
The subject of experiment [16] is HL-60. Kind of experiment: Downregulation of iNOS expression in Homo sapiens (human) HL60 cells at 15 uM after 4 hr by RT-PCR analysis relative to control. The format is functional, cell-based.
For experiment [17], the system named is HL-60. Briefly: Cell cycle arrest in Homo sapiens (human) HL60 cells assessed as accumulation at S phase at 15 uM after 9 hr by propidium iodide staining-based FACS flow cytometric analysis (reference value: 56.8 +/- 2.4%). The format is functional.
In experiment [18] the test system is HL-60. Kind of experiment: Induction of apoptosis in Homo sapiens (human) HL60 cells assessed as appearance of apoptotic bodies at 15 uM after 24 hr by hoechst 33258 staining-based fluorescence microscopic analysis relative to control. In kind it is functional, cell-based.
For experiment [19], the system named is HL-60. Kind of experiment: Cell cycle arrest in Homo sapiens (human) HL60 cells assessed as accumulation at G2/M phase at 15 uM after 6 hr by propidium iodide staining-based FACS flow cytometric analysis (reference value: 9 +/- 1.2%). The format is functional.
Experiment [20] concerns HL-60. Briefly: Cell cycle arrest in Homo sapiens (human) HL60 cells assessed as accumulation at S phase at 15 uM after 12 hr by propidium iodide staining-based FACS flow cytometric analysis (reference value: 56.8 +/- 2.4%). In kind it is functional.
Experiment [21] has as its system HL-60. Briefly: Cell cycle arrest in Homo sapiens (human) HL60 cells assessed as accumulation at S phase at 15 uM after 3 hr by propidium iodide staining-based FACS flow cytometric analysis (reference value: 56.8 +/- 2.4%). In kind it is functional.
Experiment [22] deals with HL-60. Kind of experiment: Upregulation of bax expression in Homo sapiens (human) HL60 cells at 15 uM after 4 hr by RT-PCR analysis. In kind it is functional, cell-based.
For experiment [23], the system named is HL-60. Kind of experiment: Cell cycle arrest in Homo sapiens (human) HL60 cells assessed as accumulation at G2/M phase at 15 uM after 9 hr by propidium iodide staining-based FACS flow cytometric analysis (reference value: 9 +/- 1.2%). In kind it is functional.
Experiment [24] deals with HL-60. Briefly: Downregulation of NF-kappaB expression in Homo sapiens (human) HL60 cells at 15 uM after 4 hr by RT-PCR analysis. The format is functional, cell-based.
For experiment [25], the system named is HL-60. Briefly: Induction of apoptosis in Homo sapiens (human) HL60 cells assessed as DNA fragmentation at 15 uM after 24 hr by hoechst 33258 staining-based fluorescence microscopic analysis relative to control. In kind it is functional, cell-based.
In experiment [26] the test system is HL-60. Briefly: Inhibition of nitrite production in Homo sapiens (human) HL60 cells after 12 hr by Griess assay. In kind it is functional, cell-based.
Experiment [27] deals with HL-60. Briefly: Cell cycle arrest in Homo sapiens (human) HL60 cells assessed as accumulation at G0/G1 phase at 15 uM after 6 hr by propidium iodide staining-based FACS flow cytometric analysis (reference value: 36.2 +/- 2.4%). The format is functional.
The subject of experiment [28] is HL-60. Kind of experiment: Inhibition of TNFalpha production in Homo sapiens (human) HL60 cells after 6 hr by ELISA. The format is functional, cell-based.
Experiment [29] has as its system HL-60. Kind of experiment: Cell cycle arrest in Homo sapiens (human) HL60 cells assessed as accumulation at G0/G1 phase at 15 uM after 12 hr by propidium iodide staining-based FACS flow cytometric analysis (reference value: 36.2 +/- 2.4%). In kind it is functional.
Experiment [30] deals with HL-60. Briefly: Downregulation of bcl-2 expression in Homo sapiens (human) HL60 cells at 15 uM after 4 hr by RT-PCR analysis. The format is functional, cell-based.
The test system of experiment [31] is HL-60. Briefly: Induction of apoptosis in Homo sapiens (human) HL60 cells assessed as caspase 3 activation at 15 uM after 24 hr by colorimetric analysis. The format is functional, cell-based.
Experiment [32] relates to HL-60. Kind of experiment: Cell cycle arrest in Homo sapiens (human) HL60 cells assessed as accumulation at G2/M phase at 15 uM after 12 hr by propidium iodide staining-based FACS flow cytometric analysis (reference value: 8.2 +/- 0.4%).
Experiment [33] concerns HL-60. Kind of experiment: Cell cycle arrest in Homo sapiens (human) HL60 cells assessed as accumulation at sub-G1 phase at 15 uM after 9 hr by propidium iodide staining-based FACS flow cytometric analysis (reference value: 0.1%). The format is functional.

Calls of active or inactive are those of the source. No cut-off for these calls is given here.

As for `CNC(=N)NCCC[C@H](N)C(=O)O`, in experiment [1], the inhibition entry is “Active”.

Consider `CC(C)=CC(=O)O[C@@H]1CC(C)(C)C[C@@H]2C3=CC[C@@H]4[C@@]5(C)CCC(=O)C(C)(C)[C@@H]5CC[C@@]4(C)[C@]3(C)CC[C@]21C(=O)O` [LANTADENE B], for which the IC50 in [2] is 13.2 µM; in experiment [3], more than 50 µM; in [4] it was 19.1 µM; in experiment [5], 43 µM; in experiment [6], 81.4 µM.

In the case of `C/C=C(/C)C(=O)O[C@@H]1CC(C)(C)C[C@H]2C3=CC[C@@H]4[C@@]5(C)CC[C@H](O)C(C)(C)[C@@H]5CC[C@@]4(C)[C@]3(C)CC[C@@]12C(=O)O` [Reduced Lantadene A], the Activity is recorded as 64.2% in experiment [7]; 3.2% in [8]; 0.2% in [9]; 8.4% in [10]; 0.4% in [11]; 34.4% in [12]. Moreover, the Activity in experiment [13] was 14%; in experiment [15], “Dose-dependent effect”; in [17], 63.6%; in [19] it was 15.8%; in [20], 44.8%; in experiment [21], 57%. Moreover, the Activity in experiment [23] was 20.8%; in experiment [25], “Dose-dependent effect”; in experiment [27] it was 20.8%; in experiment [29], 15.4%; in experiment [32] it was 42%; in experiment [33] it was 1.2%. Moreover, the result in experiment [14], in experiment [16], in [18], in experiment [22], in experiment [24] and in experiment [30] was Active. Moreover, in experiment [31], the outcome was Active. The IC50 in [2] is 1.2 µM; in experiment [3], more than 50 µM; in experiment [4], 1.5 µM; in experiment [5], 6.1 µM; in experiment [6], 6 µM. The inhibition entry in [26] and in [28] was “Dose-dependent effect” in each case.

With `C/C=C(/C)C(=O)O[C@@H]1CC(C)(C)C[C@H]2C3=CC[C@@H]4[C@@]5(C)CCC(=O)C(C)(C)[C@@H]5CC[C@@]4(C)[C@]3(C)CC[C@@]12C(=O)O` [LANTADENE A], the IC50 in [2] was 13.4 µM; in experiment [3], more than 50 µM; in [4] it was 19.3 µM; in experiment [5], 50.7 µM; in experiment [6], 25.8 µM.

`CC(C)=CC(=O)O[C@@H]1CC(C)(C)C[C@H]2C3=CC[C@@H]4[C@@]5(C)CC[C@H](O)C(C)(C)[C@@H]5CC[C@@]4(C)[C@]3(C)CC[C@@]12C(=O)O` [Reduced Lantadene B]: the Activity came to 62.1% in experiment [7]; 3.4% in [8]; 0.3% in [9]; 7.4% in experiment [10]; 0.5% in [11]; 32.8% in [12]. Moreover, the Activity in experiment [13] is 12.6%; in experiment [15] it was “Dose-dependent effect”; in experiment [17], 61.6%; in [19], 14.8%; in [20] it was 42.1%; in [21] it was 55.1%. For the same compound, the Activity in experiment [23] is 19.9%; in [25], “Dose-dependent effect”; in [27], 18.2%; in [29], 13.9%; in experiment [32] it was 40.8%. The outcome in experiment [14], in experiment [16], in experiment [18], in experiment [22], in experiment [24] and in [30] was Active. Besides, in [31], the outcome was Active. In addition, the IC50 in experiment [2] is 1.8 µM; in experiment [3], more than 50 µM; in experiment [4], 2.1 µM; in [5], 6.4 µM; in experiment [6], 5.2 µM. The inhibition entry in experiment [26] and in [28] was “Dose-dependent effect” in each case.
